Literature values in patent US11324828B2, “Hydrogel polymeric compositions and methods” (Incept, LLC, priority 2007, dated 2022).
Read-outs that look alike come from different tables or passages of the source.

Tests used:
[1] = not given; remark: listed apart in the source

Row | water solubility | SMILES | Solubility ([1]; in water) | also measured
1 | about 86 mg/L | CCCCN1CCCCC1C(=O)Nc1c(C)cccc1C (stereo not drawn) [Bupivacaine] | – | –
2 | about 1113 mg/L | O=C(O)Cc1ccccc1Nc1c(Cl)cccc1Cl [Diclofenac Sodium] | – | –

The remaining lines, values behind:

Row | SMILES | water solubility | Solubility ([1]; in water) | also measured
3 | CCc1cccc2c3c([nH]c12)C(CC)(CC(=O)O)OCC3 (stereo not drawn) [Etodolac] | – | Insoluble in water | –
4 | CC(C(=O)[O][Ca][O]C(=O)C(C)c1cccc(Oc2ccccc2)c1)c1cccc(Oc2ccccc2)c1 (stereo not drawn) [Fenoprofen Calcium] | – | Slightly soluble in water | –
5 | Cc1ccc(Cl)c(Nc2ccccc2C(=O)[O-])c1Cl.[Na+] [Meclofenamate Sodium] | – | – | Solubility ([1]; @ pH 7.2): <50 μg/mL @ pH 7.2 50 mg/mL @ pH 9.0
6 | NC(=O)Cc1cccc(C(=O)c2ccccc2)c1N [Nepafenac] | – | – | Solubility ([1]; no pH or medium printed): <1 mg/ml (The drug is available as 0.1% suspension)
